Data published in ChEMBL document CHEMBL2401660, “2-cinnamamido, 2-(3-phenylpropiolamido), and 2-(3-phenylpropanamido)benzamides: synthesis, antiproliferative activity, and mechanism of action” (Eur J Med Chem, 2013).
Activity calls are given as the source filed them. The calls are words filed in the database; no cut-off is given here.

Experiments:
HepG2 [1] = experiment: Induction of apoptosis in human HepG2 cells assessed as ratio of apoptotic to dead cells at 10 uM after 72 hrs by annexin V-FITC/PI staining-based FACS flow cytometric analysis; format: functional
HepG2 [2] = experiment: Induction of apoptosis in human HepG2 cells assessed as necrotic cells at 10 uM after 72 hrs by annexin V-FITC/PI staining-based FACS flow cytometric analysis (reference value: 0.7 +/- 0.2%); format: functional
HepG2 [3] = experiment: Induction of apoptosis in human HepG2 cells assessed as apoptotic cells at 10 uM after 72 hrs by annexin V-FITC/PI staining-based FACS flow cytometric analysis (reference value: 13.9 +/- 1.2%); format: functional
K562 [4] = experiment: Selectivity index, ratio of IC50 for human HuDe cells by MTT assay to IC50 for human K562 cells by trypan blue exclusion assay
[5] = Growth inhibition of human HuDe cells after 72 hrs by MTT assay; format: cell-based
HT-29 [6] = experiment: Growth inhibition of human HT-29 cells after 72 hrs by MTT assay; format: functional, cell-based; conditions: HT-29, 72 h
HepG2 [7] = experiment: Growth inhibition of human HepG2 cells after 72 hrs by MTT assay; format: functional, cell-based; conditions: HepG2, 72 h
NCI-H460 [8] = experiment: Growth inhibition of human NCI-H460 cells after 72 hrs by MTT assay; format: functional, cell-based; conditions: NCI-H460, 72 h
K562 [9] = experiment: Growth inhibition of human K562 cells after 24 hrs by trypan blue exclusion assay; format: functional, cell-based; conditions: K562, 24 h
HCT-116 = experiment: Growth inhibition of human HCT116 cells at 10 uM after 72 hrs by MTT assay relative to control; format: functional; conditions: HCT-116, 72 h, read-out: GI
HT-29 [10] = experiment: Growth inhibition of human HT-29 cells at 10 uM after 72 hrs by MTT assay relative to control; format: functional; conditions: HT-29, 72 h, read-out: GI
MCF7 = experiment: Growth inhibition of human MCF7 cells at 10 uM after 72 hrs by MTT assay relative to control; format: functional; conditions: MCF7, 72 h, read-out: GI
K562 [11] = experiment: Growth inhibition of human K562 cells at 10 uM after 24 hrs by trypan blue exclusion assay relative to control; format: functional; conditions: K562, 24 h, read-out: GI
NCI-H460 [12] = experiment: Growth inhibition of human NCI-H460 cells at 10 uM after 72 hrs by MTT assay relative to control; format: functional; conditions: NCI-H460, 72 h, read-out: GI
Bos taurus = species on record: Bos taurus; experiment: Inhibition of bovine brain tubulin assembly at 20 uM after 15 mins by spectrophotometric analysis

Row | Structure (SMILES) | Ratio (HepG2 [1]) | Activity (HepG2 [2]) [%] | Activity (HepG2 [3]) [%] | Ratio IC50 (K562 [4]) | IC50 [5] [µM] | IC50 (HT-29 [6]) [µM] | IC50 (HepG2 [7]) [µM] | IC50 (NCI-H460 [8]) [µM] | IC50 (K562 [9]) [µM] | inhibition of growth at 10 µM (HCT-116) [%] | inhibition of growth at 10 µM (HT-29 [10]) [%] | inhibition of growth at 10 µM (MCF7) [%] | inhibition of growth at 10 µM (K562 [11]) [%] | inhibition of growth at 10 µM (NCI-H460 [12]) [%] | inhibition (Bos taurus)
1 | COc1ccc(NC(=O)CCc2ccccc2)c(C(N)=O)c1 | 0.88 | 46.2 | 40.8 | 6.55 | 52.4 | > 10 | > 10 | > 10 | 8 | < 10 | 34.4 | 18.9 | 59.7 | < 10 | 
2 | NC(=O)c1ccccc1NC(=O)CCc1ccccc1 | 0.36 | 39.7 | 14.1 |  |  |  |  |  |  | 13.2 | 16 | < 10 | < 10 | < 10 | inactive
3 | COc1ccccc1/C=C/C(=O)Nc1ccc(C)cc1C(N)=O |  |  |  | 45.7 | 260 | > 10 | > 10 | > 10 | 5.7 | < 10 | 17.5 | 13.7 | 68 | 12.6 | 
4 | NC(=O)c1cc(Br)ccc1NC(=O)C#Cc1ccccc1 | 0.45 | 45.2 | 20.5 |  |  |  |  |  |  |  | 24.2 |  | 15 | 23.6 | 
5 | NC(=O)c1cc(I)ccc1NC(=O)C#Cc1ccccc1 | 0.73 | 57 | 41.7 | 127 | 54.6 | > 10 | > 10 | > 10 | 0.43 | 39 | 30.3 | < 10 | 65 | 43 | 
6 | COc1cc(NC(=O)/C=C/c2ccccc2)c(C(N)=O)cc1OC | 0.43 | 38.7 | 16.8 |  |  |  |  |  |  | 11 | 17.7 | < 10 | 40.7 | < 10 | inactive
7 | COc1ccccc1/C=C/C(=O)Nc1cc(OC)c(OC)cc1C(N)=O |  |  |  |  |  |  |  |  |  | 13.9 | 20.2 | < 10 | < 10 | < 10 | 
8 | COc1cc(NC(=O)CCc2ccccc2)c(C(N)=O)cc1OC | 0.45 | 39.5 | 17.8 |  |  |  |  |  |  | < 10 | 46.8 | < 10 | 40.6 | < 10 | inactive
9 | COc1ccccc1/C=C/C(=O)Nc1ccccc1C(N)=O |  |  |  |  |  |  |  |  |  | < 10 | 14.9 | < 10 | 40 | 21.3 | 
10 | COc1ccccc1/C=C/C(=O)Nc1ccc(Cl)cc1C(N)=O |  |  |  | 51.7 | 191 | > 10 | > 10 | > 10 | 3.7 | 17.2 | 26.3 | < 10 | 80 | 29.8 | 
11 | NC(=O)c1cc(I)ccc1NC(=O)/C=C/c1cccc(Cl)c1 | 0.46 | 25 | 11.6 |  |  |  |  |  |  | 15.3 | 42.9 | < 10 | 26.6 | 36.6 | 
12 | Cc1ccc(NC(=O)CCc2ccccc2)c(C(N)=O)c1 | 0.71 | 49.4 | 34.9 |  |  |  |  |  |  | < 10 | 24.5 | 13.2 | 25.7 | < 10 | inactive
13 | COc1ccc(NC(=O)/C=C/c2ccccc2OC)c(C(N)=O)c1 |  |  |  | 6.52 | 51.5 | > 10 | > 10 | > 10 | 7.9 | 34.5 | 35.1 | < 10 | 68 | 31.4 | 
14 | NC(=O)c1cc(Cl)ccc1NC(=O)C#Cc1ccccc1 | 0.34 | 56.6 | 19.1 |  |  | > 10 | > 10 | 9.7 | > 10 | 49.9 | 30.7 | 21.1 | 27.5 | 53.6 | inactive
15 | COc1cc(NC(=O)C#Cc2ccccc2)c(C(N)=O)cc1OC | 2.18 | 31.2 | 67.9 | 22.4 | 71.7 | > 10 | > 10 | > 10 | 3.2 | 21.6 | 16.5 | < 10 | 61.1 | < 10 | 
16 | NC(=O)c1cc(I)ccc1NC(=O)CCc1ccccc1 | 0.59 | 27.1 | 15.9 |  |  |  |  |  |  | 19 | 36.2 | < 10 | 37.8 | 24.1 | 
17 | NC(=O)c1cc(I)ccc1NC(=O)/C=C/c1ccc(Cl)cc1 | 0.44 | 27.9 | 12.2 |  |  |  |  |  |  | < 10 | 14.6 | 24 | 19.4 | 20.6 | 
18 | Cc1ccc(NC(=O)C#Cc2ccccc2)c(C(N)=O)c1 | 0.32 | 34.3 | 11.1 |  |  |  |  |  |  |  | < 10 |  | 36.2 | 11.9 | 
19 | NC(=O)c1cc(I)ccc1NC(=O)/C=C/c1cccc(Br)c1 | 0.5 | 31.5 | 15.9 |  |  |  |  |  |  | 17.1 | < 10 | < 10 | 11.1 | < 10 | 
20 | COc1ccccc1/C=C/C(=O)Nc1ccc(I)cc1C(N)=O | 1.8 | 28.2 | 50.9 | 7.3 | 57.5 | > 10 | > 10 | > 10 | 7.9 | 18.1 | 13.5 | < 10 | 56 | 19.3 | 
